Data set [1] concerns A549 non-small cell lung cancer cells. Kind of data set: MTT assay (cytotoxicity). The data set is classed as cell-based, human. As to the method: (§1) CH1/PA-1 ovarian teratocarcinoma cells (provided by L. R. Kelland, CRC Centre for Cancer Therapeutics, Institute of Cancer Research, Sutton, UK; confirmed by STR profiling as PA-1 ovarian teratocarcinoma cells at Multiplexion, Heidelberg, Germany), SW480 colon carcinoma and A549 non-small cell lung cancer cells (both obtained from the American Type Culture Collection, Manassas, VA, USA) were grown as adherent cultures in 75 cm² culture flasks (CytoOne, Starlab, Hamburg, Germany) by using minimal essential medium (MEM) supplemented with 1 mM sodium pyruvate, 4 mM L-glutamine, 1% (v/v) nonessential amino acids from 100-fold stock (all purchased from Sigma-Aldrich) and 10% heat-inactivated fetal bovine serum (BioWest, Nuaillé, France). Cells were maintained under standard culture conditions with 5% CO2 at 37 °C in a humidified atmosphere.
(§2) The 3-(4,5-dimethylthiazol-2-yl)-2,5-diphenyl-2H-tetrazolium bromide (MTT, Acros Organics, Geel, Belgium) assay was used to detect the cytotoxicity of the compounds after 24 h and 96 h incubation. In brief, cells were harvested from culture flasks and the following cell numbers (each in 100 µL) were seeded into 96-well culture plates (CytoOne, tissue culture treated, Starlab, Hamburg, Germany) for 24 h incubation: 1 × 10^4 (CH1/PA-1), 1 × 10^4 (SW480) and 1.5 × 10^4 (A549) cells per well; and for 96 h incubation: 1 × 10^3 (CH1/PA-1), 2 × 10^3 (SW480) and 3 × 10^3 (A549) cells per well. After 24 h, cells resuming their exponential growth rate were treated with test compounds at nine concentrations obtained by serial two-fold dilution. Stock solutions were prepared in DMSO (20 mM or 40 mM) and diluted in supplemented MEM. An amount of 100 µL of each concentration was added to the plates in triplicates and cells were exposed for 24 or 96 h. Afterward, the medium was replaced with 100 µL of MTT solution (5 mg/mL) in phosphate-buffered saline (PBS, Sigma-Aldrich), diluted 1:7 in RPMI 1640 medium (supplemented with 4 mM L-glutamine and 10% heat-inactivated FBS). Upon cell-viability-dependent conversion of the yellow, water-soluble tetrazolium salt into purple formazan products for 4 h, the crystals were dissolved in 150 µL DMSO. The absorbance of the resulting solutions, which is directly proportional to the number of viable cells, was measured at 550 nm (and at 690 nm as a reference) with a microplate reader (ELx808, BioTek, Winoosky, VT, USA) and Gen5TM 3.08 software (BioTek). Blank-corrected optical densities were subjected to graphical evaluation and interpolation of IC50 values. At least three biologically and technically independent experiments were performed.

Data set [2] has as its system SW480 colon carcinoma cells. Kind of data set: MTT assay (cytotoxicity). It is filed as cell-based, human. Here is the method: as §1, §2
(In general: Tetrazolium assays rely on reduction of a dye to a coloured formazan, in cell work by metabolically active cells.)

The test system of data set [3] is CH1/PA-1 ovarian teratocarcinoma cells. Description: MTT assay (cytotoxicity). The conditions noted are these: CH1/PA-1, MTT. It is filed as cell-based, human. Here is the method: as §1, §2
For data set [4], the system named is SW480 cells. Kind of data set: Cellular ruthenium accumulation (ICP-MS). The data set is classed as cell-based, human. The conditions noted are these: SW480, 2 h incubation, 37 °C. As to the method: SW480 cells were seeded at densities of 1.8 × 10^5 cells/well in 12-well plates (CytoOne, tissue culture treated) in 1 mL of supplemented MEM per well. (As CH1/PA-1 cells tend to detach during the required washing steps, cellular accumulation studies were performed only in SW480 cells). After 24 h, compounds dissolved in DMSO and diluted in MEM were added to the cells to final concentrations of 2 µM and 5 µM, and cells were incubated at 37 °C for 2 h. During incubation, the cell number was determined from three control wells of a plate seeded in parallel to the treatment plates. After the 2 h incubation, the medium was removed and all wells were washed with 3 × 1 mL PBS, and cells were lysed by adding 400 µL HNO3 per well for 1 h at room temperature. An amount of 300 µL of each lysate was added to 7.7 mL MilliQ water to get a total volume of 8 mL, and determination of the ruthenium content was carried out by ICP-MS. The measured amount of accumulated metal was normalized to the cell number and results were given in fg [Ru]/cell from at least three independent experiments. An Agilent 7800 ICP-MS instrument (Agilent Technologies, Tokyo, Japan) equipped with an Agilent SPS 4 autosampler (Agilent Technologies, Tokyo, Japan) was used to determine the ruthenium content. The ICP-MS parameters were tuned on a daily base to achieve high sensitivity. The ICP-MS was equipped with a MicroMist nebulizer with a sample uptake rate of ∼0.2 mL/min and standard nickel cones. The Agilent MassHunter software package (Workstation Software, Version C.01.04, 2018) was used for data evaluation. The instrumental parameters can be found in the supplementary information (Table S9).

Data set [5] deals with SW480 cells. Description: Apoptosis assay (annexin V-FITC/PI, flow cytometry). The conditions noted are these: SW480, 24 h; for early apoptotic cells / late apoptotic cells / necrotic cells / viable cells: mean ± SD; for Apoptosis / necrosis induction (in words): concentrations covering the IC50 range.
Description: Cell death induction was quantitatively analyzed via flow cytometry using double staining with FITC-conjugated annexin V (eBioscience, San Diego, CA, USA) and propidium iodide (PI, 1.0 mg/mL, Sigma-Aldrich). SW480 cells were seeded into 24-well plates (7 × 10^4 cells/well) in 600 µL MEM per well and allowed to settle for 24 h. Afterward, cells were exposed to two or three different concentrations (0.1–100 µM) of the compounds (based on their cytotoxic activity) for 24 h. After treatment, the medium was collected, and cells were washed once with 37 °C warm PBS and harvested. Following trypsinization, the cell suspension was added to the pre-collected medium and cells were centrifuged (300 g, 3 min). The supernatant was removed, and the cell pellet was resuspended with 1.5 µL FITC-conjugated annexin V in 150 µL binding buffer (10 mM HEPES/NaOH pH 7.4, 140 mM NaCl and 2.5 mM CaCl2) and incubated at 37 °C for 15 min. An amount of 1 µL of propidium iodide (PI, Thermo Fisher) was added shortly before flow-cytometric analysis using a Guava easyCyte 8HT instrument (Merck Millipore, Burlington, MA, USA) with InCyte software. Results were quantified by using the FlowJo software (TreeStar). At least three independent experiments were conducted.
The mark [6] stands for this setting: Homo sapiens, read-out: viable cells.

6 molecules from publication PMC9699003, “Arene Variation of Highly Cytotoxic Tridentate Naphthoquinone-Based Ruthenium(II) Complexes and In-Depth In Vitro Studies” (Pharmaceutics, 2022) can be followed below.

Each structure is given as a SMILES string.

Usually IC50 stands for the concentration that inhibits the measured activity by half. Read a high IC50 as weaker potency.

Regarding `CC1=C([O-])C([O-])(n2cccn2)c2ccccc2C1=O.Cc1ccc(C(C)C)cc1.[Ru+2]` (racemic) [Compound 1], the IC50 in data set [1] (24 h exposure) was found to be 3.8 ± 2.6 µM; in data set [2] (24 h exposure), 0.46 ± 0.14 µM; in data set [3] (24 h exposure), 59 ± 18 µM. Besides, the “Ru [102]/cell (cellular accumulation)” value was 97 ± 8 fg in data set [4] (2 µM) and 299 ± 54 fg in data set [4] (5 µM). The early apoptotic cells in data set [5] (0.1 µM) is 3.7 ± 3.1%; in data set [5] (1 µM) it was 1.3 ± 0.5%; in data set [5] (10 µM), 16 ± 1%. Further, the results for the late apoptotic cells in data set [5] (0.1 µM), in data set [5] (1 µM) and in data set [5] (10 µM) were 3.6 ± 2.6%, 4.9 ± 2.8% and 64 ± 6%, respectively. Besides, the results for the necrotic cells in data set [5] (0.1 µM), in data set [5] (1 µM) and in data set [5] (10 µM) were 0.77 ± 0.33%, 1.2 ± 0.8% and 6.7 ± 3.1%, respectively. The viable cells was determined as 92 ± 6% in data set [5] (0.1 µM), 93 ± 4% in data set [5] (1 µM) and 13 ± 3% in data set [5] (10 µM). Moreover, in data set [5], the “Apoptosis / necrosis induction (in words)” value was “induced apoptosis to a high extent”.

For `CC1=C([O-])C([O-])(n2cccn2)c2ccccc2C1=O.[Ru+2].c1ccccc1` (racemic) [Compound 2], the IC50 is greater than 200 µM in data set [1] (24 h exposure); 141 ± 38 µM in data set [1] (96 h exposure); 31 ± 3 µM in data set [2] (24 h exposure); 9.9 ± 2.5 µM in data set [2] (96 h exposure); 170 ± 23 µM in data set [3] (24 h exposure); 157 ± 8 µM in data set [3] (96 h exposure). Further, the “Ru [102]/cell (cellular accumulation)” value in data set [4] (2 µM) stood at 4.5 ± 0.3 fg; in data set [4] (5 µM) it was 11 ± 2 fg. Moreover, the values for the early apoptotic cells in data set [5] (1 µM) and in data set [5] (10 µM) were 1.1 ± 0.4% and 1.0 ± 0.3%, respectively. Besides, the values for the late apoptotic cells in data set [5] (1 µM) and in data set [5] (10 µM) were 2.0 ± 0.2% and 2.0 ± 0.3%, respectively. Also, the necrotic cells is on record as 1.4 ± 0.8% in data set [5] (1 µM) and 1.5 ± 0.8% in data set [5] (10 µM). Also, the viable cells in data set [5] (1 µM) is recorded as 95 ± 1%; in data set [5] (10 µM), 96 ± 1%.

With `CC1=C([O-])C([O-])(n2cccn2)c2ccccc2C1=O.Cc1ccccc1.[Ru+2]` (racemic) [Compound 3], the IC50 in data set [1] (24 h exposure) is greater than 200 µM; in data set [1] (96 h exposure) it was 72 ± 12 µM; in data set [2] (24 h exposure), 11 ± 2 µM; in data set [2] (96 h exposure) it was 2.8 ± 0.7 µM; in data set [3] (24 h exposure), 121 ± 18 µM; in data set [3] (96 h exposure), 138 ± 10 µM. Besides, the “Ru [102]/cell (cellular accumulation)” value in data set [4] (2 µM) was 15 ± 2 fg; in data set [4] (5 µM) it was 33 ± 10 fg. Also, the values for the early apoptotic cells in data set [5] (1 µM) and in data set [5] (10 µM) were 1.0 ± 0.7% and 0.7 ± 0.3%, respectively. Moreover, the late apoptotic cells in data set [5] (1 µM) was found to be 2.1 ± 0.3%; in data set [5] (10 µM), 2.1 ± 0.7%. The necrotic cells in data set [5] (1 µM) is on record as 1.0 ± 0.5%; in data set [5] (10 µM) it was 0.72 ± 0.49%. Moreover, the viable cells is 96 ± 1% in data set [5] (1 µM) and 97 ± 1% in data set [5] (10 µM).

For `CC1=C([O-])C([O-])(n2cccn2)c2ccccc2C1=O.[Ru+2].c1ccc2c(c1)CCC2` (racemic) [Compound 4], the IC50 in data set [1] (24 h exposure) came to 119 ± 21 µM; in data set [1] (96 h exposure) it was 9.1 ± 1.5 µM; in data set [2] (24 h exposure), 3.5 ± 1.6 µM; in data set [2] (96 h exposure), 0.52 ± 0.09 µM; in data set [3] (24 h exposure), 146 ± 18 µM; in data set [3] (96 h exposure), 88 ± 10 µM. The “Ru [102]/cell (cellular accumulation)” value is reported as 44 ± 3 fg in data set [4] (2 µM) and 100 ± 15 fg in data set [4] (5 µM). Moreover, the early apoptotic cells in data set [5] (0.1 µM) was determined as 1.1 ± 0.5%; in data set [5] (1 µM), 1.1 ± 0.7%; in data set [5] (10 µM), 1.0 ± 0.4%. Also, the late apoptotic cells in data set [5] (0.1 µM) turned out to be 2.1 ± 0.4%; in data set [5] (1 µM) it was 2.4 ± 1.2%; in data set [5] (10 µM), 8.3 ± 4.9%. The necrotic cells in data set [5] (0.1 µM) amounted to 1.7 ± 1.1%; in data set [5] (1 µM), 0.93 ± 0.65%; in data set [5] (10 µM) it was 3.4 ± 4.0%. In addition, the results for the viable cells in data set [5] (0.1 µM), in data set [5] (1 µM) and in data set [5] (10 µM) were 95 ± 2%, 96 ± 2% and 87 ± 8%, respectively.

Consider `CC1=C([O-])C([O-])(n2cccn2)c2ccccc2C1=O.[Ru+2].c1ccc(-c2ccccc2)cc1` (racemic) [Compound 5], for which the 50% inhibitory concentration (IC50) in data set [1] (24 h exposure) amounted to 4.3 ± 1.6 µM; in data set [1] (96 h exposure), 1.2 ± 0.2 µM; in data set [2] (24 h exposure), 0.77 ± 0.24 µM; in data set [2] (96 h exposure) it was 0.072 ± 0.019 µM; in data set [3] (24 h exposure) it was 42 ± 4 µM; in data set [3] (96 h exposure), 30 ± 3 µM. For the same molecule, the “Ru [102]/cell (cellular accumulation)” value is given as 107 ± 14 fg in data set [4] (2 µM) and 336 ± 10 fg in data set [4] (5 µM). For the same molecule, the early apoptotic cells in data set [5] (0.1 µM) was 3.0 ± 2.2%; in data set [5] (1 µM), 1.0 ± 0.5%; in data set [5] (10 µM) it was 25 ± 7%. The late apoptotic cells is listed as 2.9 ± 1.5% in data set [5] (0.1 µM), 3.3 ± 1.3% in data set [5] (1 µM) and 40 ± 6% in data set [5] (10 µM). The necrotic cells in data set [5] (0.1 µM) is listed as 1.0 ± 0.5%; in data set [5] (1 µM), 0.85 ± 0.48%; in data set [5] (10 µM), 6.3 ± 2.2%. Besides, the viable cells in data set [5] (0.1 µM) was 93 ± 4%; in data set [5] (1 µM), 95 ± 2%; in data set [5] (10 µM), 29 ± 11%. The “Apoptosis / necrosis induction (in words)” value in data set [5] is given as “induced apoptosis to a high extent”.

`CC1=C(O)C(=O)c2ccccc2C1=O` [L, 2-Hydroxy-3-methyl-1,4-naphthoquinone] yielded an IC50 in data set [1] (Homo sapiens, 24 h exposure) greater than 400 µM. The molecule further came in with an IC50 in data set [2] (Homo sapiens, 24 h exposure) greater than 400 µM. Besides, in data set [3] (Homo sapiens, 24 h exposure), the concentration for half-maximal inhibition (IC50) was greater than 400 µM. Also, in data set [5] (setting [6]), the viability at 10 µM came to 97 ± 1% and the viability at 100 µM turned out to be 96%. In data set [5] (10 µM), the early apoptotic cells is 1.0 ± 0.5%, the late apoptotic cells is recorded as 1.6 ± 0.2% and the necrotic cells came to 0.61 ± 0.44%. In data set [5] (100 µM), this molecule had an early apoptotic cells of 1.0 ± 0.2%, a late apoptotic cells of 1.9 ± 0.2% and a necrotic cells of 0.86 ± 0.33%. Moreover, the “Apoptosis / necrosis induction (in words)” value in data set [5] is reported as “did not induce any of these processes”.
